These results are taken from US20150099800A1, “NOVEL LIPASE INHIBITORS, REPORTER SUBSTRATES AND USES THEREOF” (Northeastern University, priority 2012, published 2015).

The target of test [1] is T1, Pancreatic Lipase (Porcine) (Sus scrofa, UniProt P00591).
T1 construct: purchased Sigma L3126
T1 sequence (P00591 1-450): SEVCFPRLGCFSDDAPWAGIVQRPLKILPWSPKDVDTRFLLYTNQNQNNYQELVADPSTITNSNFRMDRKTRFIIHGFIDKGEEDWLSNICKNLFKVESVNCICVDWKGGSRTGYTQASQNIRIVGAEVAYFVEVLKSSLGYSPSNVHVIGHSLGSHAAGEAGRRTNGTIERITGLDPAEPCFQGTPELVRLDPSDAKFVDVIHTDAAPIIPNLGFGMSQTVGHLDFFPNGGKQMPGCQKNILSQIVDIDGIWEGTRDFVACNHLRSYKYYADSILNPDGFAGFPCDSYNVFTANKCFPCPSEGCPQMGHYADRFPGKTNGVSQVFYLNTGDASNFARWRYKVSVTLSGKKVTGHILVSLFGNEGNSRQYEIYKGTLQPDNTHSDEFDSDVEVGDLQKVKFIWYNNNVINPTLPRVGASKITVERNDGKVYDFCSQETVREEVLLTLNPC
It counts as biochemical.

The next test concerns FAAH. As to conditions: cited from earlier work.
Another test deals with cannabinoid receptors. The following applies: cited from earlier work.
Test [2] concerns the target T2, MAGL (Homo sapiens, UniProt Q99685).
T2 sequence (Q99685 1-303): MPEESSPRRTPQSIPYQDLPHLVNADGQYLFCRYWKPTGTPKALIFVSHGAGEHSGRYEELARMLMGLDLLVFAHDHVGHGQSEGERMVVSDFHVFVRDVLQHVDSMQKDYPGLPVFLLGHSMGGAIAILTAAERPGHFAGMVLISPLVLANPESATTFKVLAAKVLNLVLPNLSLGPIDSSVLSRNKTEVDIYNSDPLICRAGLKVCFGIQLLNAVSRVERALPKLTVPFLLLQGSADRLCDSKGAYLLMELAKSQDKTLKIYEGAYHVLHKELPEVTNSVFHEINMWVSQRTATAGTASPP
Put plainly: hMAGL coumarin substrate fluorescence assay. The format is biochemical. More on the design: The N-terminal his-tagged full length human monoacylglycerol lipase used; His (N); made in house; host or cells: E. coli.

For test [3], the target named is T2, MAGL. As to conditions: cited from earlier work.
The target in test [4] is T3, hDAGLα (Homo sapiens, UniProt Q9Y4D2).
T3 sequence (Q9Y4D2 1-1042): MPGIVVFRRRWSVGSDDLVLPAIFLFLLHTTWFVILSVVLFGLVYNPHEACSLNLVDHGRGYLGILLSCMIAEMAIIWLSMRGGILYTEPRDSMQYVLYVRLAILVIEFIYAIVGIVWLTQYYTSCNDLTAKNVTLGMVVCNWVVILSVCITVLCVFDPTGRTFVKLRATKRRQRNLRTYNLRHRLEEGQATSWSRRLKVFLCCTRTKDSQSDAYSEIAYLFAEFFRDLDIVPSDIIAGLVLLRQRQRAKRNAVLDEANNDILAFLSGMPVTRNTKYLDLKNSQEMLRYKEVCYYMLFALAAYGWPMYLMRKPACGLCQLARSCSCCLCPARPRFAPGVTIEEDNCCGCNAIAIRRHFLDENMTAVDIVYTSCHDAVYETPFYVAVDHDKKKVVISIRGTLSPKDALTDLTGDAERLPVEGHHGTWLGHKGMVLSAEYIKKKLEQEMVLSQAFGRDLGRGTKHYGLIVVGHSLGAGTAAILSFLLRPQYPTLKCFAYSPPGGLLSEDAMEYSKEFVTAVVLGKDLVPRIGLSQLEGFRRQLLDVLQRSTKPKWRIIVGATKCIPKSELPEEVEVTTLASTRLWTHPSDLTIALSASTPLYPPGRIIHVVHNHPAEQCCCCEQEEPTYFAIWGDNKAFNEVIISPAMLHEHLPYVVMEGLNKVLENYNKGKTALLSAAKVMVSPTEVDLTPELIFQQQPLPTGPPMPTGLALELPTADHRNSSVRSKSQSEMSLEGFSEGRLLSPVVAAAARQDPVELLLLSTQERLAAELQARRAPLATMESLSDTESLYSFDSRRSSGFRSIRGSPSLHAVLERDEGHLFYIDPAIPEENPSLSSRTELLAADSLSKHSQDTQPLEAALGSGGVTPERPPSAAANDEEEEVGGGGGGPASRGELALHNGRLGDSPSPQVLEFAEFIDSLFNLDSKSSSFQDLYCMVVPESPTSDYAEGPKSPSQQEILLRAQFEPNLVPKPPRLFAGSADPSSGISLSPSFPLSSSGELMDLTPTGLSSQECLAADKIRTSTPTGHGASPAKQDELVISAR
Briefly: biochemical. The following applies: read-out: hDAGLα inhibition at 10 μM TLC (with Triton X-100) (%), 10 μM; 0.05% Triton X-100 present.

Test [5] concerns pancreatic and extrapancreatic fat necrosis. As to conditions: literature, cited from earlier work.
In test [6] the target is T3, hDAGLα.
The test system of another test is DAGL. The following applies: cited from earlier work.
[7] abbreviates: intraperitoneal (IP) injections.

Broadly, the inhibition is how much of the control response was suppressed.

Where two headings read alike, the source gives them in different places.

Take `CCCCCCCCCCC[C@@H](C[C@@H]1OC(=O)[C@H]1CCCCCC)OC(=O)[C@H](CC(C)C)NC=O` [Compound 3, tetrahydrolipstatin]: the “inhibition of porcine triacylglycerol lipase, FRET” value in test [1] (preliminary studies) is on record as “potent inhibition”. Besides, the inhibition at 10 µM in [1] (read-out: Pancreatic Lipase (Porcine) inhibition at 10 μM (%)) was found to be 96%; on MAGL [2] (read-out: hMAGL inhibition at 10 μM (%)) it was 47%; at hDAGLα [4] it was 100%. The “inhibition of FAAH activity reported in the literature” value with FAAH (literature) is listed as “poor inhibitors”. For the same molecule, the “binding to the cannabinoid receptors, previous reports” value in the test with cannabinoid receptors (literature) is recorded as “did not bind”. Moreover, the “inhibition of MAGL activity reported in the literature” value on MAGL [3] (literature) is “poor inhibitors”. Further, the “effect on concentration of free fatty acid in the blood” value in test [5] (setting [7]) is “no effect”. Besides, in test [5] (setting [7]), the “lowering of lipase activity in the blood” value was “small effect”. In addition, the “prevention of pancreatic and extrapancreatic fat necrosis” value in [5] (rodents) is “not effective”.
As to `CCCCCCCCCCCC(CC1OC(=O)C1CCCCCC)OC(=O)C(NC=O)C(C)CC` (centres unmarked) [Compound 6], the “Pancreatic Lipase (Porcine) inhibition at 10 μM (%)” value in test [1] (10 μM) stood at 99%. In addition, on hDAGLα [6] (10 μM), the “hDAGLα inhibition at 10 μM (0.05% Triton X-100) (%), FRET” value is given as 98%. For the same molecule, the “hDAGLα inhibition at 10 μM detergent free (%), FRET” value on hDAGLα [6] (10 μM, detergent free) amounted to 90%. Moreover, the “hMAGL inhibition at 10 μM (%)” value on MAGL [2] (10 μM) was determined as 39%.
Regarding `CCCCCCCCCCC[C@@H](C[C@@H]1OC(=O)[C@H]1CCCCCC)OC(=O)[C@H](NC=O)[C@@H](C)CC` [Compound 7], the “Pancreatic Lipase (Porcine) inhibition at 10 μM (%)” value in [1] (10 μM) turned out to be 95%. The “hDAGLα inhibition at 10 μM (0.05% Triton X-100) (%), FRET” value at hDAGLα [6] (10 μM) is 98%. For the same molecule, the “hDAGLα inhibition at 10 μM detergent free (%), FRET” value on hDAGLα [6] (10 μM, detergent free) amounted to 90%. Further, the “hMAGL inhibition at 10 μM (%)” value on MAGL [2] (10 μM) is 42%.
On to `O=C(Oc1ccc([N+](=O)[O-])cc1)N1CCC(C(O)(c2ccc3c(c2)OCO3)c2ccc3c(c2)OCO3)CC1` [JZL184], for which the “Pancreatic Lipase (Porcine) inhibition at 10 μM (%)” value in [1] was determined as 36%. Moreover, the “effect on DAGL activity reported in the literature” value in the test on DAGL is listed as “poor inhibitors”. On hDAGLα [6], the “hDAGLα inhibition at 10 μM detergent free (%), FRET” value was 59, 44° % and the “hDAGLα inhibition at 10 μM detergent free (%), FRET, marker °” value is listed as 59, 44° %. Also, the “inhibition of FAAH activity reported in the literature” value in the test with FAAH was “poor inhibitors”. Also, the “binding to the cannabinoid receptors, previous reports” value with cannabinoid receptors was “did not bind”. Besides, the “hMAGL inhibition at 10 μM (%)” value on MAGL [2] was 100^F %. In addition, at MAGL [3], the “inhibition of MAGL activity reported in the literature” value is given as “poor inhibitors”.
